Values quoted from earlier work in patent publication US11246852B2, “Fast-acting plant-based medicinal compounds and nutritional supplements” (RECEPTOR HOLDINGS, INC., priority 2016, dated 2022).

SMILES: CCCCCc1cc(O)c2c(c1)OC(C)(C)[C@@H]1CCC(C)=C[C@@H]21 [THC, delta-9-tetrahydrocannabinol]
- appetite stimulant effect may continue for (after administration): ≥ 24 h
- duration of action (after oral administration, psychoactive effects): 4 to 6 h
